This passage reports EC50 and IC50 results from patent publication US10316017B2, “COT modulators and methods of use thereof” (Gilead Sciences, Inc., priority 2015, dated 2019).

Experiment [1] deals with TNFα production in LPS-stimulated human monocytes. In words: Cot Monocyte TNFα Cell Based Assay. The note with it: Homo sapiens, Monocyte, TNFα in LPS-stimulated human monocytes; read-out: EC50 TNF. In a few lines: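 Human monocytes (5,000 cells/well) pretreated with compound for 1 hour at 37° C (0.5% DMSO), then stimulated with 50 pg/ml LPS for 4 hours. Total TNFα measured by TR-FRET after overnight antibody incubation at room temp, expressed as percent of control between unstimulated and stimulated cells.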

The target in experiment [2] is T1, human Cot catalytic domain (30-397 amino acids) (Homo sapiens, UniProt P41279).
T1 construct: Purified recombinant human Cot catalytic domain (30-397 amino acids) was purchased from Cama Biosciences; purchased Cama Biosciences (so in the source)
In words: High Throughput Cot Biochemical Assay (KinEASE TR-FRET). The note with it: Cot KinEASE TR-FRET (HTRF) biochemical assay, 400 μM ATP; read-out: IC50 HTRF. In a few lines: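 Recombinant human Cot catalytic domain (aa 30-397), 5 nM, with 1 μM STK3 peptide and 400 μM ATP in MOPS pH 7.0 buffer with MgOAc, DTT, BSA, NP-40, glycerol, 0.1% DMSO. Phosphorylated XL665-peptide detected by Eu-[…] antibody TR-FRET.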
On the technique in general: Time-resolved FRET reads energy transfer from a long-lived donor to a nearby acceptor.

T1 sequence (P41279 30-397): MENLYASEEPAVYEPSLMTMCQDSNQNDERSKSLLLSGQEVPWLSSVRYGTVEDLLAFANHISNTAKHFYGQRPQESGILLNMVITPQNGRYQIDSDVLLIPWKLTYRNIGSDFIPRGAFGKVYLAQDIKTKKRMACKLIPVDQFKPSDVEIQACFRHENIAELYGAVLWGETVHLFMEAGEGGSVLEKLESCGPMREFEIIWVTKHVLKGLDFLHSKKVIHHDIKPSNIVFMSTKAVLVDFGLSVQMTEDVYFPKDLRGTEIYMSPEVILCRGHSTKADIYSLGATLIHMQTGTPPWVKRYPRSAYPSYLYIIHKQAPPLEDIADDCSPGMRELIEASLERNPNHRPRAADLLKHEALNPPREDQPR

A word on the EC50: it is the midpoint of the concentration-response curve. For orientation: IC50 means the point on the concentration scale where inhibition reaches its midpoint. For the compound `[2H][C@](Nc1cc(Cl)c2ncc(C#N)c(NC(C)(C)C)c2c1)(c1ccc(F)cc1)c1cn(C2CC2)nn1` [Example 283, (S)-4-(tert-butylamino)-8-chloro-6-(((1-cyclopropyl-1H-1,2,3-triazol-4-yl)(4-fluorophenyl)methyl-d)amino)quinoline-3-carbonitrile], the 50% effective concentration (EC50) in experiment [1] is 764 nM. Also, the IC50 in experiment [2] is 90 nM.
Turning to `[2H][C@](Nc1cc(C#N)c2ncc(C#N)c(NCC(C)(C)C)c2c1)(c1ccc(F)cc1)c1cn(C2CC2)nn1` [Example 284, (S)-6-(((1-cyclopropyl-1H-1,2,3-triazol-4-yl)(4-fluorophenyl)methyl-d)amino)-4-(neopentylamino) quinoline-3,8-dicarbonitrile], the EC50 in experiment [1] came to 52 nM. Moreover, the IC50 in experiment [2] was determined as 4 nM.
With `[2H][C@](Nc1cc(C#N)c2ncc(C#N)c(N[C@H](CC)c3ccccc3)c2c1)(c1ccc(F)cc1)c1cn(C2CC2)nn1` [Example 285, 6-(((S)-(1-cyclopropyl-1H-1,2,3-triazol-4-yl)(4-fluorophenyl)methyl-d)amino)-4-(((R)-1-phenylpropyl)amino) quinoline-3,8-dicarbonitrile], the concentration for a half-maximal effect (EC50) in experiment [1] worked out at 45 nM. In experiment [2], the half-maximal inhibitory concentration (IC50) was determined as 3 nM.
In the same order, the values of `[2H][C@](Nc1cc(Br)c2ncc(C#N)c(NCC(C)(C)C)c2c1)(c1ccc(F)cc1)c1cn(C2CC2)nn1` [Example 287, (S)-8-bromo-6-(((1-cyclopropyl-1H-1,2,3-triazol-4-yl)(4-fluorophenyl)methyl-d)amino)-4-(neopentylamino)quinoline-3-carbonitrile] are 140 nM and 10 nM.
The corresponding values for `[2H][C@](Nc1cc(Br)c2ncc(C#N)c(N[C@H](CC)c3ccccc3)c2c1)(c1ccc(F)cc1)c1cn(C2CC2)nn1` [Example 288, 8-bromo-6-(((S)-(1-cyclopropyl-1H-1,2,3-triazol-4-yl)(4-fluorophenyl)methyl-d)amino)-4-(((R)-1-phenylpropyl)amino)quinoline-3-carbonitrile] are 130 nM and 6 nM.
In the same order, the values of `[2H][C@@](Nc1cc(Cl)c2ncc(C#N)c(NCC(C)(C)C)c2c1)(c1cn(C2CC2)nn1)c1cccc(C#N)c1Cl` [Example 289, (S)-8-chloro-6-(((2-chloro-3-cyanophenyl)(1-cyclopropyl-1H-1,2,3-triazol-4-yl)methyl-d)amino)-4-(neopentylamino) quinoline-3-carbonitrile] are 116 nM and 4 nM.
Regarding `[2H][C@](Nc1cc(F)c2ncc(C#N)c(N[C@H](CC)c3ccccc3)c2c1)(c1ccc(F)cc1)c1cn(C2CC2)nn1` [Example 291, 6-(((S)-(1-cyclopropyl-1H-1,2,3-triazol-4-yl)(4-fluorophenyl)methyl-d)amino)-8-fluoro-4-(((R)-1-phenylpropyl)amino) quinoline-3-carbonitrile], the EC50 in experiment [1] came out at 173 nM. Also, the concentration for half-maximal inhibition (IC50) in experiment [2] turned out to be 8 nM.
The corresponding values for `[2H][C@@](Nc1cc(Cl)c2ncc(C#N)c(N[C@H](CC)c3ccccc3)c2c1)(c1cn(C2CC2)nn1)c1cccc(C#N)c1Cl` [Example 292, 8-chloro-6-(((S)-(2-chloro-3-cyanophenyl)(1-cyclopropyl-1H-1,2,3-triazol-4-yl)methyl-d)amino)-4-(((R)-1-phenylpropyl)amino)quinoline-3-carbonitrile] are 237 nM and 13 nM.
The corresponding values for `N#Cc1cnc2c(Cl)cc(N[C@H](c3cn(C4CC4)nn3)c3cccc(Cl)c3Cl)cc2c1Nc1cnc(F)c(F)c1` [Example 293, (S)-8-chloro-6-(((1-cyclopropyl-1H-1,2,3-triazol-4-yl)(2,3-dichlorophenyl)methyl)amino)-4-((5,6-difluoropyridin-3-yl)amino)quinoline-3-carbonitrile] are 469 nM and 24 nM.
In the same order, the values of `CC[C@@H](Nc1c(C#N)cnc2c(Cl)cc(N[C@H](c3cn(C4CC4)nn3)c3cccc(Cl)c3Cl)cc12)c1ccccc1` [Example 294, 8-chloro-6-(((S)-(1-cyclopropyl-1H-1,2,3-triazol-4-yl)(2,3-dichlorophenyl)methyl)amino)-4-(((R)-1-phenylpropyl)amino)quinoline-3-carbonitrile] are 1880 nM and 92 nM.
In the case of `[2H][C@](Nc1cc(Cl)c2ncc(C#N)c(N[C@@H](CC#N)c3ccccc3)c2c1)(c1cccc(C#N)c1)c1cn(C2CC2)nn1` [Example 295, 8-chloro-4-(((S)-2-cyano-1-phenylethyl)amino)-6-(((S)-(3-cyanophenyl)(1-cyclopropyl-1H-1,2,3-triazol-4-yl)methyl-d)amino)quinoline-3-carbonitrile], the EC50 in experiment [1] is greater than 10000 nM. In addition, the IC50 in experiment [2] worked out at 389 nM.
Consider `[2H][C@](Nc1cc(Cl)c2ncc(C#N)c(N[C@H](CC#N)c3ccccc3)c2c1)(c1cccc(C#N)c1)c1cn(C2CC2)nn1` [Example 296, 8-chloro-4-(((R)-2-cyano-1-phenylethyl)amino)-6-(((S)-(3-cyanophenyl)(1-cyclopropyl-1H-1,2,3-triazol-4-yl)methyl-d)amino)quinoline-3-carbonitrile], for which the EC50 in experiment [1] amounted to 44 nM. Moreover, the IC50 in experiment [2] is 2 nM.
The corresponding values for `CC[C@@H](Nc1c(C#N)cnc2c(Cl)cc(N[C@@H](c3ccc(F)cc3)c3c[nH]nn3)c(F)c12)c1ccccc1` [Example 297] are 4250 nM and greater than 10000 nM.
`[2H][C@](Nc1cc(Cl)c2ncc(C#N)c(N[C@H](CC)c3ccccc3)c2c1)(c1ccccc1Cl)c1nn[nH]c1C` [Example 298, 8-chloro-6-(((S)-(2-chlorophenyl)(5-methyl-1H-1,2,3-triazol-4-yl)methyl-d)amino)-4-(((R)-1-phenylpropyl)amino)quinoline-3-carbonitrile]: the EC50 in experiment [1] is 1470 nM. For the same compound, the IC50 in experiment [2] is 121 nM.
`[2H][C@](Nc1cc(Cl)c2ncc(C#N)c(NCC(C)(C)C#N)c2c1)(c1ccc(F)cc1)c1cn(C2CC2)nn1` [Example 299, (S)-8-chloro-4-((2-cyano-2-methylpropyl)amino)-6-(((1-cyclopropyl-1H-1,2,3-triazol-4-yl)(4-fluorophenyl)methyl-d)amino)quinoline-3-carbonitrile]: in experiment [1], the half-maximal effective concentration (EC50) is 309 nM. The concentration for half-maximal inhibition (IC50) in experiment [2] is 12 nM.
As to `[2H][C@](Nc1cc(Cl)c2ncc(C#N)c(N[C@H](CC)c3cccc(F)c3)c2c1)(c1ccc(F)cc1)c1cn(C2CC2)nn1` [Example 300, 8-chloro-6-(((S)-(1-cyclopropyl-1H-1,2,3-triazol-4-yl)(4-fluorophenyl)methyl-d)amino)-4-(((R)-1-(3-fluorophenyl)propyl)amino) quinoline-3-carbonitrile], the EC50 in experiment [1] came to 126 nM. In addition, the half-inhibitory concentration (IC50) in experiment [2] was determined as 4 nM.
The corresponding values for `[2H][C@](Nc1cc(Cl)c2ncc(C#N)c(NNC3CCCCC3)c2c1)(c1ccc(F)cc1)c1cn(C2CC2)nn1` [Example 301, (S)-8-chloro-4-(2-cyclohexylhydrazinyl)-6-(((1-cyclopropyl-1H-1,2,3-triazol-4-yl)(4-fluorophenyl)methyl-d)amino)quinoline-3-carbonitrile] are 1240 nM and greater than 10000 nM.
As for `[2H][C@](Nc1cc(Cl)c2ncc(C#N)c(NC(CCC#N)c3ccccc3)c2c1)(c1ccc(F)cc1)c1cn(C2CC2)nn1` (stereo partly drawn) [Example 302, 8-chloro-4-((3-cyano-1-phenylpropyl)amino)-6-(((S)-(1-cyclopropyl-1H-1,2,3-triazol-4-yl)(4-fluorophenyl)methyl-d)amino)quinoline-3-carbonitrile], the 50% effective concentration (EC50) in experiment [1] stood at 74 nM. In addition, the IC50 in experiment [2] worked out at 3 nM.
In the same order, the values of `[2H][C@](Nc1cc(Cl)c2ncc(C#N)c(Nc3cnc(F)c(Cl)c3)c2c1)(c1cccc(C#N)c1)c1cn(C2CC2)nn1` [Example 303, (S)-8-chloro-4-((5-chloro-6-fluoropyridin-3-yl)amino)-6-(((3-cyanophenyl)(1-cyclopropyl-1H-1,2,3-triazol-4-yl)methyl-d)amino)quinoline-3-carbonitrile] are 174 nM and 4 nM.
As for `CC(C)n1cc([C@@H](Nc2cc(Cl)c3ncc(C#N)c(N[C@@H](CC#N)c4ccccc4)c3c2)c2ccc(F)cc2)nn1` [Example 304, 8-chloro-4-(((S)-2-cyano-1-phenylethyl)amino)-6-(((S)-(4-fluorophenyl)(1-isopropyl-1H-1,2,3-triazol-4-yl)methyl)amino)quinoline-3-carbonitrile], the concentration for a half-maximal effect (EC50) in experiment [1] was greater than 10000 nM. The IC50 in experiment [2] came out at 864 nM.
As for `CC(C)n1cc([C@@H](Nc2cc(Cl)c3ncc(C#N)c(N[C@H](CC#N)c4ccccc4)c3c2)c2ccc(F)cc2)nn1` [Example 305, 8-chloro-4-(((R)-2-cyano-1-phenylethyl)amino)-6-(((S)-(4-fluorophenyl)(1-isopropyl-1H-1,2,3-triazol-4-yl)methyl)amino)quinoline-3-carbonitrile], the EC50 in experiment [1] worked out at 78 nM. For the same compound, the half-inhibitory concentration (IC50) in experiment [2] amounted to 4 nM.
The corresponding values for `[2H][C@](Nc1cc(Cl)c2ncc(C#N)c(NC(c3ccccc3)C(C)(C)C)c2c1)(c1ccc(F)cc1)c1cn(C2CC2)nn1` (stereo partly drawn) [Example 307, 8-chloro-6-(((S)-(1-cyclopropyl-1H-1,2,3-triazol-4-yl)(4-fluorophenyl)methyl-d)amino)-4-((2,2-dimethyl-1-phenylpropyl)amino)quinoline-3-carbonitrile] are 950 nM and 116 nM.
